{"source": "patent US7932289B2", "about": "“Remedy for diabetes” (Takeda Pharmaceutical Company Limited, priority 2004, dated 2011)", "test_system": "type 2 diabetic rats with sulfonylurea secondary failure (N-STZ-1.5 rat)", "details": "for Increment of plasma insulin level: 0 to 10 minutes after oral glucose loading (1 g/kg); for Increment of plasma insulin level / Increment of plasma glucose level: drug 10 mg/kg orally 30 min before glucose, male N-STZ-1.5 rats made glibenclamide-refractory, mean, n=6; for Increment of plasma glucose level: 0 to 60 minutes after oral glucose loading (1 g/kg); for plasma glucose level lowering effect / plasma insulin level increasing effect: in words, type 2 diabetic rats with sulfonylurea secondary failure, 10 mg/kg orally; for plasma glucose level lowering effect: summary of Table 1; for plasma insulin level increasing effect: summary of Table 2", "procedure": "Streptozocin (STZ) (120 mg/kg body weight) was administered to a 1.5-day-old male WKY rat to prepare a type 2 diabetes model N-STZ-1.5 rat.\nGlibenclamide (10 mg/kg body weight/day) was orally administered to the N-STZ-1.5 rats (male, 18 rats) every day for 4 consecutive weeks.\nAt 30 min after the administration, 1 g/kg body weight of a glucose solution was orally administered to each rat, and blood samples were collected from the rat tail vein before administration of the glucose solution and at 10, 30, 60 and 120 minutes after administration of the glucose solution, and the plasma glucose level and plasma insulin level were measured.\nThe plasma glucose level was measured using an L type Wako Glu2 (trade name, Wako Pure Chemical Industries, Ltd.) according to an enzyme method, and the plasma insulin level was measured using a SHIONORIA insulin kit (trade name, Shionogi & Co., Ltd.) by a radioimmunoassay.\nIn the Tables, the values show mean values (n=6)."}
{"smiles": "Cc1cccc(C)c1-c1cccc(COc2ccc(CCC(=O)O)cc2)c1", "note": "[Compound A, 4-([2′,6′-dimethyl-1,1′-biphenyl]-3-ylmethoxy)benzenepropanoic acid]", "values": [{"measurement": "Increment of plasma insulin level", "value": 42.76, "unit": "μU/ml"}, {"measurement": "Increment of plasma glucose level", "value": 107.12, "unit": "mg/dL"}, {"measurement": "plasma glucose level lowering effect", "value": "superior plasma glucose level lowering effect"}, {"measurement": "plasma insulin level increasing effect", "value": "superior plasma insulin level increasing effect"}]}
{"smiles": "COc1ccc(Cl)cc1C(=O)NCCc1ccc(S(=O)(=O)NC(=O)NC2CCCCC2)cc1", "note": "[glibenclamide]", "values": [{"measurement": "Increment of plasma insulin level", "value": 29.37, "unit": "μU/ml"}, {"measurement": "Increment of plasma glucose level", "value": 178.40, "unit": "mg/dL"}, {"measurement": "plasma glucose level lowering effect", "value": "failed to show a plasma glucose level lowering effect"}, {"measurement": "plasma insulin level increasing effect", "value": "hardly showed a plasma insulin level increasing effect"}]}
